What was measured:
Male Sprague-Dawley rats = assay: Formalin model of acute tonic pain; type: in vivo, rat
Method: Male Sprague-Dawley rats were given a subcutaneous injection of 50 μl of 2.5% formalin into the plantar surface of one hindpaw using a 27 gauge syringe needle, and nociceptive responses were measured for the next 60 min. Compound or vehicle was administered (ip. or s.c.) 15-45 minutes prior to the formalin injection. A nociceptive score was determined for each 5 min block by measuring the amount of time spent in each of four behavioral categories: 0, the injected hindpaw is indistinguishable from that of the contralateral paw; 1, the injected paw has little or no weight placed on it; 2, the injected paw is elevated and is not in contact with any surface; 3, the injected paw is licked, bitten, or shaken. A weighted nociceptive score, ranging from 0 to 3 was calculated by multiplying the time spent in each category by the category weight, summing these products, and dividing by the total time for each 5 min block of time (Coderre et al., Pain 1993; 54: 43). On the basis of the resulting response patterns, 2 phases of nociceptive behaviour were identified and scored: first phase (P1; 0-5 min) and second phase (P2; 11-40 min).
(§1) Statistical analysis was performed using Prism™ 4.01 software package (GraphPad, San Diego, Calif., USA). The difference in response levels between treatment groups and control vehicle group was analyzed using an ANOVA followed by Bonferroni's method for post-hoc pair-wise comparisons. A p value <0.05 was considered to be significant.
Animals were treated with vehicle (VEH) or Compound 5 (50 mg/kg i.p.; CMP) 10-20 minutes before the intraplantar injection of 2.5% formalin, as described above.

[1] = tested on: NGF-induced neurite outgrowth, PC12 cells; assay: NGF-induced neurite outgrowth of PC12 cells; type: cell-based, rat; settings: 25 μM compound, 5 ng/ml NGF, mean±SEM, n=8; no inhibition=100%, maximal inhibition=0%
Method: This assay was run as a further functional marker of NGF antagonism and takes advantage of the differentiation of PC12 cells (neurite outgrowth) induced by NGF. Cultures of PC12 cells were grown on Terasaki plates pre-coated with poly-D-lysine. Cells were exposed to NGF (1-50 (preferably 5) ng/ml) to induce neurite outgrowth as described elsewhere [L A Greene & A S Tischler, Establishment of a noradrenergic clonal line of rat adrenal pheochromocytoma cells which respond to nerve growth factor, Proc Natl Acad Sci USA. 1976 July; 73(7): 2424-2428]. In addition to NGF, cells were exposed to varying concentration of the compounds or vehicle. Following 4 days of exposure to NGF in the presence or absence of compound, neurite outgrowth was quantified. A neurite was scored if its caliber from origin to terminal was approximately the same and the length was equal to or greater than 1.5 the cell body diameter. The number of neurite bearing cells per total number of viable cells was calculated for each condition; the number of cells with neurites in the presence of NGF (without compound exposure) was considered to represent maximal (100%) outgrowth, to which the inhibitory effect of compounds of the invention on NGF-induced outgrowth was compared.

[2] = tested on: NGF-induced Erk 1/2 phosphorylation in PC12 cells; assay: Erk phosphorylation in NGF-stimulated PC12 cells (Western blot, ELISA); type: cell-based, rat; settings: 1 ng/mL NGF, result in words
Method: This assay is useful for establishing that the compounds of the invention are functional NGF antagonists, not receptor agonists (an agonist could conceivably block NGF binding but actually activate the receptor). Erk 1/2 is a kinase activated down stream of TrkA and is a well studied member of the NGF-induced signal transduction cascade.
PC12 cells expressing TrkA and p75 were acutely exposed to 1 ng/mL NGF (15 min; 37° C.; 5% CO2) that was pre-incubated (30 min; room temperature) with or without the compounds. Cells were lysed in Laemmli sample buffer (for SDS-PAGE) or a lysis buffer containing Triton X-100 (for ELISA). Following SDS-PAGE, proteins were electroblotted onto nitrocellulose and immunoprobed for phosphorylated Erk 1 and 2. Blocking and primary antibody incubations of immunoblots were performed in Tris-buffered saline-Tween (10 mM Tris, pH 8.0, 150 mM NaCl, and 0.2% Tween 20) supplemented with 5% (w/v) bovine serum albumin (BSA); secondary antibody incubations were performed in 5% (w/v) dried skim milk powder. Immunoreactive bands were detected by chemiluminescence.
To detect phosphorylated Erk 1/2 by ELISA, a kit from R&D (Minneapolis, Minn.) Systems was used. […] The quantity of phosphoryated Erk 1/2 was quantified colorometrically with a standard HRP-streptavidin reaction.

Mice = assay: Writhing test (acetic acid abdominal contraction test); type: in vivo, mouse
Method: The acetic acid abdominal contraction test (Martinez et al., Pain 1999; 81: 179) was used to determine the efficacy of different compounds in a model of acute visceral chemical nociception. […] Compound or vehicle was administered (i.p. or s.c.) 15-45 minutes prior to the acetic acid injection. Each episode of writhing is characterized by a lengthwise stretching of the torso with a concomitant arching of the back.
as §1, with “significant” for “significant.”
Animals were treated with vehicle (VEH) or Compound 5 (100 mg/kg i.p.; CMP) 10-20 minutes before the intraperitoneal injection of acetic acid, as described above.

O=C(O)c1ccc(Cl)c(N2C(=O)c3cccc4cc([N+](=O)[O-])cc(c34)C2=O)c1 [Compound 5, 4-Chloro-3-(5-nitro-1,3-dioxo-1H,3H-benzo[de]isoquinolin-2-yl)-benzoic acid]
formalin-induced spontaneous responses, Phase I (Male Sprague-Dawley rats; 50 mg/kg i.p. 10-20 min before 2.5% formalin, vehicle 148±9, n=8): 59±15
formalin-induced spontaneous responses, Phase II (Male Sprague-Dawley rats; 50 mg/kg i.p. 10-20 min before 2.5% formalin, vehicle 180±6, n=8): 61±19
antinociceptive effect in the Formalin Test (Male Sprague-Dawley rats; 50 mg/kg i.p., result in words, p<0.001 vs vehicle, 50 mg/kg): significant antinociceptive effects
NGF-induced neurite outgrowth, % of NGF-only control [1]: 65%±17%
NGF-induced Erk 1/2 phosphorylation, ELISA [2]: inhibits NGF-induced Erk 1/2 phosphorylation
NGF-induced Erk 1/2 phosphorylation, Western blot [2]: inhibits NGF-induced Erk 1/2 phosphorylation
chemically-induced abdominal contractions (number in 30 minutes) (Mice; 100 mg/kg i.p. 10-20 min before acetic acid, vehicle 58±3, n=6): 14±6
antinociceptive effect in the Writhing Test (Mice; 100 mg/kg i.p., result in words, p<0.001 vs vehicle, 100 mg/kg): significant antinociceptive effects
